From ChEMBL document CHEMBL1143927, “Investigation of novel 7,8-disubstituted-5,10-dihydro-dibenzo[b,e][1,4]diazepin-11-ones as potent Chk1 inhibitors” (Bioorg Med Chem Lett, 2008)

Tests used:
HeLa = test: Antiproliferative activity against human HeLa cells after 48 hrs by MTS assay; assay type: functional, cell-based
[1] = Cell cycle arrest in human H1299 cells assessed as accumulation at G2/M phase by FACS; assay type: functional, cell-based; conditions: NCI-H1299
[2] = target: T1, Serine/threonine-protein kinase Chk1 (Homo sapiens, UniProt O14757); test: Inhibition of recombinant Chk1
T1 sequence (O14757 whole entry): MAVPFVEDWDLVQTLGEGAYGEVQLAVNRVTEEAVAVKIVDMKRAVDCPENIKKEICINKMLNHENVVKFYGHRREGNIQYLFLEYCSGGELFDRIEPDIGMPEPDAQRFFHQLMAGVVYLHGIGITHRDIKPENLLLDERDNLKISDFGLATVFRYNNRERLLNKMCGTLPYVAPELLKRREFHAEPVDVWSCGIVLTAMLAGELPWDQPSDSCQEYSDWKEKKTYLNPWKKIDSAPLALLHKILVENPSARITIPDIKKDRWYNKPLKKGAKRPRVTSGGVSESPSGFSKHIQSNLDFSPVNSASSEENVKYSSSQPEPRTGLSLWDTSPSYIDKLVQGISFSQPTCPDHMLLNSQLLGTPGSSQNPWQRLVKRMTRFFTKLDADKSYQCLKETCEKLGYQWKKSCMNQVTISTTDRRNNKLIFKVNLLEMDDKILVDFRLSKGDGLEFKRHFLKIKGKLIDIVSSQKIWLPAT

[3] = target: T1, Serine/threonine-protein kinase Chk1; test: Inhibition of human Chk1 in H1299 cells assessed as blockade of Cdc25A degradation; assay type: cell-based

COc1cc2c(cc1OCc1ccccc1C(F)(F)F)Nc1cc(-c3ccc([N+](=O)[O-])c(OC)c3)ccc1C(=O)N2
EC50 (HeLa): > 59 µM | EC50 [1]: > 10 µM | IC50 [2]: 1.05 µM

COc1cc2c(cc1CCCO)Nc1cc(-c3ccc([N+](=O)[O-])c(OC)c3)ccc1C(=O)N2
EC50 [3]: 1.5 µM | EC50 (HeLa): > 59 µM | EC50 [1]: > 10 µM | IC50 [2]: 0.0026 µM

COCCOCCOc1cc2c(cc1OC)NC(=O)c1ccc(-c3ccc([N+](=O)[O-])c(OC)c3)cc1N2
EC50 [3]: 3.1 µM | EC50 (HeLa): 52 µM | EC50 [1]: > 10 µM | IC50 [2]: 0.0031 µM

COc1cc2c(cc1OCc1ccncc1)Nc1cc(-c3ccc([N+](=O)[O-])c(OC)c3)ccc1C(=O)N2
EC50 [3]: 0.05 µM | EC50 (HeLa): > 59 µM | EC50 [1]: > 10 µM | IC50 [2]: 0.0068 µM

COC(=O)CCc1cc2c(cc1OC)NC(=O)c1ccc(-c3ccc([N+](=O)[O-])c(OC)c3)cc1N2
EC50 [3]: > 10 µM | EC50 (HeLa): > 59 µM | EC50 [1]: > 10 µM | IC50 [2]: 0.022 µM

COc1cc2c(cc1OCCCCO)Nc1cc(-c3ccc([N+](=O)[O-])c(OC)c3)ccc1C(=O)N2
EC50 [3]: 2 µM | EC50 (HeLa): > 59 µM | EC50 [1]: > 10 µM | IC50 [2]: 0.0007 µM

COc1cc2c(cc1CCC(C)(C)O)Nc1cc(-c3ccc([N+](=O)[O-])c(OC)c3)ccc1C(=O)N2
EC50 [3]: 0.6 µM | EC50 (HeLa): > 59 µM | EC50 [1]: > 10 µM | IC50 [2]: 0.004 µM

COc1cc2c(cc1CCC(=O)N(C)C)Nc1cc(-c3ccc([N+](=O)[O-])c(OC)c3)ccc1C(=O)N2
EC50 [3]: 0.05 µM | EC50 (HeLa): > 59 µM | EC50 [1]: > 10 µM | IC50 [2]: 0.0079 µM

COc1cc2c(cc1CC(C)(C)O)Nc1cc(-c3ccc([N+](=O)[O-])c(OC)c3)ccc1C(=O)N2
EC50 [3]: 0.04 µM | EC50 (HeLa): > 59 µM | EC50 [1]: 1.8 µM | IC50 [2]: 0.0034 µM

COc1cc(-c2ccc3c(c2)Nc2ccccc2NC3=O)ccc1[N+](=O)[O-]
EC50 (HeLa): 47.7 µM

COc1cc2c(cc1CCO)Nc1cc(-c3ccc([N+](=O)[O-])c(OC)c3)ccc1C(=O)N2
EC50 [3]: 0.9 µM | EC50 (HeLa): > 59 µM | EC50 [1]: > 10 µM | IC50 [2]: 0.0035 µM

COc1cc2c(cc1OCc1csc(C)n1)Nc1cc(-c3ccc([N+](=O)[O-])c(OC)c3)ccc1C(=O)N2
EC50 [3]: > 10 µM | EC50 (HeLa): > 59 µM | EC50 [1]: > 10 µM | IC50 [2]: 0.004 µM

COc1cc2c(cc1OCC1CCCCO1)Nc1cc(-c3ccc([N+](=O)[O-])c(OC)c3)ccc1C(=O)N2 (stereo not drawn)
EC50 [3]: 0.2 µM | EC50 (HeLa): 2 µM | EC50 [1]: 2.4 µM | IC50 [2]: 0.0048 µM

COC(=O)c1cc2c(cc1OC)Nc1cc(-c3ccc([N+](=O)[O-])c(OC)c3)ccc1C(=O)N2
EC50 [3]: > 10 µM | EC50 (HeLa): > 59 µM | EC50 [1]: > 10 µM | IC50 [2]: 0.0112 µM

COc1cc2c(cc1O)Nc1cc(-c3ccc([N+](=O)[O-])c(OC)c3)ccc1C(=O)N2
EC50 [3]: 0.07 µM | EC50 (HeLa): > 59 µM | EC50 [1]: > 10 µM | IC50 [2]: 0.0009 µM

CCc1cc2c(cc1OC)Nc1cc(-c3ccc([N+](=O)[O-])c(OC)c3)ccc1C(=O)N2
EC50 [3]: 0.35 µM | EC50 (HeLa): 4.5 µM | EC50 [1]: > 10 µM | IC50 [2]: 0.009 µM

COc1cc2c(cc1CCc1ccncc1)Nc1cc(-c3ccc([N+](=O)[O-])c(OC)c3)ccc1C(=O)N2
EC50 [3]: 2.1 µM | EC50 (HeLa): 9.6 µM | EC50 [1]: > 10 µM | IC50 [2]: 0.0162 µM

COc1cc2c(cc1CCCO)NC(=O)c1ccc(-c3ccc([N+](=O)[O-])c(OC)c3)cc1N2
EC50 [3]: 0.22 µM | EC50 (HeLa): 22 µM | EC50 [1]: 4.3 µM | IC50 [2]: 0.0019 µM

COc1cc2c(cc1C(=O)N(C)C)NC(=O)c1ccc(-c3ccc([N+](=O)[O-])c(OC)c3)cc1N2
EC50 [3]: 3.5 µM | EC50 (HeLa): 45 µM | EC50 [1]: > 10 µM | IC50 [2]: 0.0155 µM

COc1cc2c(cc1OC)Nc1cc(-c3ccc([N+](=O)[O-])c(OC)c3)ccc1C(=O)N2
EC50 [3]: 0.28 µM | EC50 (HeLa): > 59 µM | EC50 [1]: > 10 µM | IC50 [2]: 0.0006 µM

COc1cc2c(cc1OCCCN)Nc1cc(-c3ccc([N+](=O)[O-])c(OC)c3)ccc1C(=O)N2
EC50 [3]: 2.6 µM | EC50 (HeLa): 17.3 µM | EC50 [1]: > 10 µM | IC50 [2]: 0.00098 µM

COc1cc2c(cc1OCCN1CCOCC1)Nc1cc(-c3ccc([N+](=O)[O-])c(OC)c3)ccc1C(=O)N2
EC50 [3]: 0.2 µM | EC50 (HeLa): 2 µM | EC50 [1]: 2.4 µM | IC50 [2]: 0.0081 µM

COc1cc2c(cc1OCCO)Nc1cc(-c3ccc([N+](=O)[O-])c(OC)c3)ccc1C(=O)N2
EC50 [3]: 3.1 µM | EC50 (HeLa): > 59 µM | EC50 [1]: > 10 µM | IC50 [2]: 0.00058 µM
